Measured values reported in patent publication US20140179664A1, “Heterocyclyl Pyrimidine Analogues As JAK Inhibitors” (Cellzome Limited, priority 2011, published 2014).

Biological target: T1, JAK3 (Homo sapiens, UniProt P52333)
T1 construct: endogenous in cells; host or cells: Molt4 (ATCC CRL-1582) and Ramos (ATCC CRL-1596), mixed lysate 1:2
T1 sequence (P52333 1-1124): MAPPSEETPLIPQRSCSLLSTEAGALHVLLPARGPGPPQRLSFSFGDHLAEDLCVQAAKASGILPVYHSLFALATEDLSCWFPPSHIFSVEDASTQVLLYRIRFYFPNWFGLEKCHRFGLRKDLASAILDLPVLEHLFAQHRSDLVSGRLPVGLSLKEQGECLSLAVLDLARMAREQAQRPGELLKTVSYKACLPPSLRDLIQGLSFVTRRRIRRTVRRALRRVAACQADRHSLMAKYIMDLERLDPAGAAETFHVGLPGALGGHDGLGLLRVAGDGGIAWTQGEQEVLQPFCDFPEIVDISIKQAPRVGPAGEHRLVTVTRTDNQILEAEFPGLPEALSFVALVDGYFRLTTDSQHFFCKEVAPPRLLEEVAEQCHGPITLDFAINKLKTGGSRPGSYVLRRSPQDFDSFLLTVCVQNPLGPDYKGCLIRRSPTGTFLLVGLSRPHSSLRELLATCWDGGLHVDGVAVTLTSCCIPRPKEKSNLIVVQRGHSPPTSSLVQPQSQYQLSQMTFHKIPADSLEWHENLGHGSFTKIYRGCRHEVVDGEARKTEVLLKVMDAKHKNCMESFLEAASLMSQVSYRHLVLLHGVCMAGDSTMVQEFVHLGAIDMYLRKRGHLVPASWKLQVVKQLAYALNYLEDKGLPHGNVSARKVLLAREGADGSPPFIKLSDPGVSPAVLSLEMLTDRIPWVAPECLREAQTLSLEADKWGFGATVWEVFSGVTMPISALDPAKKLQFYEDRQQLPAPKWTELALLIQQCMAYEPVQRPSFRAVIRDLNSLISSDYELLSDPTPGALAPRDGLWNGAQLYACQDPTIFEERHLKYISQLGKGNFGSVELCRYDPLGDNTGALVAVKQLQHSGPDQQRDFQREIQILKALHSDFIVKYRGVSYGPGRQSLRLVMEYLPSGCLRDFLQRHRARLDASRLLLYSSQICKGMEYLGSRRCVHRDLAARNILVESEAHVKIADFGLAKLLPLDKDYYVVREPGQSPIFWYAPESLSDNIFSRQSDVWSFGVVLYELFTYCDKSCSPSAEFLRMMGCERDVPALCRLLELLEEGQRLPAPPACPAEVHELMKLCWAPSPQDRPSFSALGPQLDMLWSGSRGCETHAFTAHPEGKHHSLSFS
Test: Kinobeads assay, JAK3
Assay type: binding
Details: mixed Molt4/Ramos lysate, read-out: Inhibition values (IC50) JAK3
How it was run: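 IC50s come from capture competition: compound at various concentrations versus an immobilized aminopyrido-pyrimidine ligand for kinases in 1:2 Molt4/Ramos lysate (10 mg/mL), 3 h in a cold room. Captured JAK-family kinases were measured by specific-antibody dot blot with Odyssey infrared detection.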

| IC50 | SMILES |
| --- | --- |
| < 0.1 µM | NC(=O)Cn1cc(Nc2ncc(Cl)c(N[C@H](CO)c3ccccc3)n2)cn1 [Compound 56] |
| < 0.1 µM | CC(C)(O)Cn1cc(Nc2ncc(Cl)c(NC(CO)c3ccccc3F)n2)cn1 (stereo not drawn) [Compound 57] |
| < 0.1 µM | Cn1cc(Nc2ncc(Cl)c(N[C@H](CO)c3ccccc3F)n2)cn1 [Compound 58] |
| 0.1 to 1 µM | Cn1cc(Nc2ncc(Cl)c(N[C@H](C(=O)NC3CCCC3)c3ccccc3)n2)cn1 [Compound 59] |
| 0.1 to 1 µM | O=C(NC1CCCC1)[C@@H](Nc1nc(Nc2cnn(CCO)c2)ncc1Cl)c1ccccc1 [Compound 60] |
| < 0.1 µM | CC(C)(O)Cn1cc(Nc2ncc(Cl)c(NC(CO)c3cccc(F)c3)n2)cn1 (stereo not drawn) [Compound 61] |
| < 0.1 µM | CC(C)(O)Cn1cc(Nc2ncc(Cl)c(NC(CO)c3c(F)cccc3F)n2)cn1 (stereo not drawn) [Compound 62] |
| 1 to 10 µM | OCCn1cc(Nc2ncc(Cl)c(N[C@@H](CO)c3ccccc3)n2)cn1 [Compound 63] |
| < 0.1 µM | OCCCn1cc(Nc2ncc(Cl)c(NC(CO)c3ccccc3F)n2)cn1 (stereo not drawn) [Compound 64] |
| 0.1 to 1 µM | OCC[C@@H](Nc1nc(Nc2cnn(CCO)c2)ncc1Cl)c1ccccc1 [Compound 65] |
| 0.1 to 1 µM | CNC(=O)Cn1cc(Nc2ncc(Cl)c(N[C@H](CCO)c3ccccc3)n2)cn1 [Compound 66] |
| < 0.1 µM | CC(C)NC(=O)Cn1cc(Nc2ncc(Cl)c(N[C@H](CO)c3ccccc3)n2)cn1 [Compound 67] |
| < 0.1 µM | O=C(Cn1cc(Nc2ncc(Cl)c(N[C@H](CO)c3ccccc3)n2)cn1)NC1CC1 [Compound 68] |
| 0.1 to 1 µM | Cn1cc(Nc2ncc(Cl)c(NC(CO)c3cccc(-c4cnn(C)c4)c3)n2)cn1 (stereo not drawn) [Compound 69] |
| < 0.1 µM | CN(CC#N)C(=O)Cn1cc(Nc2ncc(Cl)c(N[C@H](CO)c3ccccc3)n2)cn1 [Compound 70] |
| 0.1 to 1 µM | Cn1cc(Nc2ncc(Cl)c(NC(CO)c3ccc(F)cc3)n2)cn1 (stereo not drawn) [Compound 71] |
| 0.1 to 1 µM | OCCn1cc(Nc2ncc(Cl)c(NC(CO)c3ccc(F)cc3)n2)cn1 (stereo not drawn) [Compound 72] |

| IC50 | SMILES |
| --- | --- |
| < 0.1 µM | CC(C)(C(N)=O)n1cc(Nc2ncc(Cl)c(N[C@H](CO)c3ccccc3F)n2)cn1 [Compound 73] |
| < 0.1 µM | COc1ccccc1[C@@H](CO)Nc1nc(Nc2cnn(C)c2)ncc1Cl [Compound 74] |
| < 0.1 µM | OC[C@@H](Nc1nc(Nc2cn[nH]c2)ncc1Cl)c1ccccc1 [Compound 75] |
| < 0.1 µM | COc1ccccc1[C@@H](CO)Nc1nc(Nc2cnn(CCO)c2)ncc1Cl [Compound 76] |
| < 0.1 µM | OCCn1cc(Nc2ncc(Cl)c(N[C@H](CO)c3ccccc3F)n2)cn1 [Compound 77] |
| < 0.1 µM | NC(=O)Cn1cc(Nc2ncc(Cl)c(N[C@H](CO)c3ccccc3F)n2)cn1 [Compound 78] |
| < 0.1 µM | OC[C@@H](Nc1nc(Nc2cn[nH]c2)ncc1Cl)c1ccccc1F [Compound 79] |
| < 0.1 µM | OCCn1cc(Nc2ncc(Cl)c(N[C@H](CO)c3ccccn3)n2)cn1 [Compound 80] |
| < 0.1 µM | NC(=O)Cn1cc(Nc2ncc(Cl)c(N[C@H](CO)c3ccccn3)n2)cn1 [Compound 81] |
| < 0.1 µM | COc1cccc([C@@H](CO)Nc2nc(Nc3cnn(C)c3)ncc2Cl)c1 [Compound 82] |
| < 0.1 µM | COc1cccc([C@@H](CO)Nc2nc(Nc3cnn(CCO)c3)ncc2Cl)c1 [Compound 83] |
| < 0.1 µM | COc1cccc([C@@H](CO)Nc2nc(Nc3cnn(CC(N)=O)c3)ncc2Cl)c1 [Compound 84] |
| 0.1 to 1 µM | Cc1cnc(Nc2cnn(CC(F)F)c2)nc1N[C@H](CO)c1cc(F)cc(F)c1 [Compound 167] |
| 0.1 to 1 µM | Cc1cnc(Nc2cnn(CC(F)F)c2)nc1NC(CO)c1c(F)cccc1F (stereo not drawn) [Compound 168] |
| < 0.1 µM | Cc1cnc(Nc2cnn(CC(=O)N3CCOCC3)c2)nc1NC(CO)c1c(F)cccc1F (stereo not drawn) [Compound 169] |
| < 0.1 µM | CNC(=O)Cn1cc(Nc2ncc(Cl)c(N[C@H](CO)c3cccnc3)n2)cn1 [Compound 170] |
